From ChEMBL document CHEMBL3046236, “The application of comparative molecular field analysis for the design of -anilino substituted-3-phenyl propanoic acids as novel PPAR/ dual ligands” (Med Chem Res, 2012)

Columns and labels:
[1] = target: T1, Peroxisome proliferator-activated receptor gamma (Homo sapiens, UniProt P37231)
T1 sequence (P37231 whole entry): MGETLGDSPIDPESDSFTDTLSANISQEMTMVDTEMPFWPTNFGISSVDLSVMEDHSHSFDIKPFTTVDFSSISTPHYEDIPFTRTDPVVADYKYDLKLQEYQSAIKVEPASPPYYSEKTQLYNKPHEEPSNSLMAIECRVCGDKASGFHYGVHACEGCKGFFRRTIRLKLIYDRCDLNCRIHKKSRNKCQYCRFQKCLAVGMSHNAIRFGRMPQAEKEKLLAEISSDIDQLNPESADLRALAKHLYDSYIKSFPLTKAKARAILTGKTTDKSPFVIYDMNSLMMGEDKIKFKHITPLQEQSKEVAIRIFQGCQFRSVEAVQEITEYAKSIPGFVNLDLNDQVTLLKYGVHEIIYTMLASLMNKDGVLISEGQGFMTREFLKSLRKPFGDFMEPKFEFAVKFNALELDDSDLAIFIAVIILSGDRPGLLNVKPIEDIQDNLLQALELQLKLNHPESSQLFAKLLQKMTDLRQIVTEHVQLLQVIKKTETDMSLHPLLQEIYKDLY
Description: Transactivation of Homo sapiens (human) PPARgamma assessed as luciferase activity by reporter gene assay

[2] = target: T2, Peroxisome proliferator-activated receptor alpha (Homo sapiens, UniProt Q07869); assay: Transactivation of Homo sapiens (human) PPARalpha assessed as luciferase activity by reporter gene assay
T2 sequence (Q07869 whole entry): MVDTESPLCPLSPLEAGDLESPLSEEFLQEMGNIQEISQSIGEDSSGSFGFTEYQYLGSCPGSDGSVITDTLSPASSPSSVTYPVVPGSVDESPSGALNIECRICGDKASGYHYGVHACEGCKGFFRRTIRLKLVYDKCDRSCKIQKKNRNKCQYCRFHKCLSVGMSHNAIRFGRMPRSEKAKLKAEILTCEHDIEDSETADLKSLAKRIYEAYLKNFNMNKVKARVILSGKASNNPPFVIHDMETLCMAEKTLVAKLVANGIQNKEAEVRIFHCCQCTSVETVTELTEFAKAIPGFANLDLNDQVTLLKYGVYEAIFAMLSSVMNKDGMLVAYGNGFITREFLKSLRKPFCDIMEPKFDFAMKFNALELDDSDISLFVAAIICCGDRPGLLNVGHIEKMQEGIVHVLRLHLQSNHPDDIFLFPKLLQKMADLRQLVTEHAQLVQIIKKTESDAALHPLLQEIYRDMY

Row | EC50 [1] [nM] | EC50 [2] [nM] | Compound
1 | 8510 | 5250 | CCO[C@@H](Cc1ccc(OC/C=C(/c2ccccc2)c2ccc(F)cc2)cc1)C(=O)O
2 | 1 | 1 | Cc1oc(C2CCCCC2)nc1CCOc1ccc(C[C@H](Oc2ccccc2)C(=O)O)cc1
3 |  | > 10000 | Cc1sc(-c2ccncc2)nc1CCOc1ccc(C[C@H](Nc2ccccc2C(=O)c2ccccc2)C(=O)O)cc1
4 | 631 | 2510 | CC(C)O[C@H](Cc1ccc(OCc2noc(-c3cc(C(F)(F)F)cc(C(F)(F)F)c3)n2)cc1)C(=O)O
5 | 4270 | 2190 | CCO[C@@H](Cc1ccc(OC/C=C(\c2ccccc2)c2ccc(Br)cc2)cc1)C(=O)O
6 |  | 692 | CCO[C@@H](Cc1ccc(OCC=C(c2ccc(C)cc2)c2ccc(C)cc2)cc1)C(=O)O
7 | 31.6 | 3.98 | CC(C)O[C@@H](Cc1ccc(OCc2noc(-c3cc(C(F)(F)F)cc(C(F)(F)F)c3)n2)cc1)C(=O)O

Row | Compound | EC50 [1] [nM] | EC50 [2] [nM]
8 | CCO[C@@H](Cc1ccc(OC/C=C(/c2ccccc2)c2ccc(-c3ccccc3)cc2)cc1)C(=O)O |  | 891
